# From ChEMBL document CHEMBL3882724 (2013)
# Key:
# [1] = molecular target: T1, Steroid 17-alpha-hydroxylase/17,20 lyase (Homo sapiens, UniProt P05093); assay: Inhibition of CYP17 in human testicular microsomes using 17alpha-hydroxypregnenolone as substrate assessed as decrease in DHEA levels after 90 mins by ELISA; parameters: species or system Testis
# T1 sequence (P05093 whole entry): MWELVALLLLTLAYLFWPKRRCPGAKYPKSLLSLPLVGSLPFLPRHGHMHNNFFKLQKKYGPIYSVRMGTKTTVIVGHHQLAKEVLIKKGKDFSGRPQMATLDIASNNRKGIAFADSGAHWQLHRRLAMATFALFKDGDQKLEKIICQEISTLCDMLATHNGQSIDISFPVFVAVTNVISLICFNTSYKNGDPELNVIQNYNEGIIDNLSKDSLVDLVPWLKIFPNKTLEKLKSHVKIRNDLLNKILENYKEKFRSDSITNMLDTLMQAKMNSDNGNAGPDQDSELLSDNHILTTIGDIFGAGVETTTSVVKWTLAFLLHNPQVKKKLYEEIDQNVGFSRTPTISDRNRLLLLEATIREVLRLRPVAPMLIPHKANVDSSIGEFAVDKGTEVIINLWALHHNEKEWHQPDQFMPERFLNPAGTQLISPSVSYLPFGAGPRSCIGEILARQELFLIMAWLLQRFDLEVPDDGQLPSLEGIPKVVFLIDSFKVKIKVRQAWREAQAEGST
# [2] = molecular target: T1, Steroid 17-alpha-hydroxylase/17,20 lyase; assay: Inhibition of CYP17 in human testicular microsomes using 17alpha-hydroxypregnenolone as substrate assessed as decrease in DHEA levels at 10 nM after 90 mins by ELISA relative to control; parameters: species or system Testis; conditions: 1.5 h
# [3] = Half life in human liver microsomes at 1 uM by LC-MS/MS analysis
# [4] = molecular target: T2, CYP21 (steroid 21-hydroxylase) (Homo sapiens, UniProt P08686); assay: Inhibition of human CYP21 transfected in HEK293 cells assessed as decrease in conversion of progesterone to 11-deoxycorticosterone at 100 nM preincubated for 5 hrs followed by progesterone addition measured after 20 hrs by ELISA relative to control; type: cell-based; conditions: HEK293 cells transfected with human CYP21, probe progesterone
# T2 sequence (P08686 whole entry): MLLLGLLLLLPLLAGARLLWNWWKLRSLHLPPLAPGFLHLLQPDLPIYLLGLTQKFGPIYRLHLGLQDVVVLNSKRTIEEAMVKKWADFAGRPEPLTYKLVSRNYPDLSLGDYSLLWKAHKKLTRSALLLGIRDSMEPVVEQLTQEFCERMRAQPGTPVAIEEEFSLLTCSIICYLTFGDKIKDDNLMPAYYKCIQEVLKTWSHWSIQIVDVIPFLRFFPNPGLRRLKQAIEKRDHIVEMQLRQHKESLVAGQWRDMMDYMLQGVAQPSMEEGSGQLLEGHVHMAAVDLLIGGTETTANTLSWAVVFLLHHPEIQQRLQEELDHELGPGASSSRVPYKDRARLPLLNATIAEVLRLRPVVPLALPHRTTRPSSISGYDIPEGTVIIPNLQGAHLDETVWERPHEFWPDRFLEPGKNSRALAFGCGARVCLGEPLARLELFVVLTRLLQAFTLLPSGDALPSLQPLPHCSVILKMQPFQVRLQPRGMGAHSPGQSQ
# [5] = Half life in rat liver microsomes at 1 uM by LC-MS/MS analysis
# [6] = molecular target: T3, CYP11B (Rattus norvegicus, UniProt P15393+P30099); assay: Inhibition of Sprague-Dawley rat adrenal mitochondrial CYP11B assessed as decrease in conversion of 11-deoxycortisol to cortisol at 100 nM incubated for 60 mins by ELISA relative to control; type: protein assay; conditions: adrenal mitochondria, probe 11-deoxycortisol
# T3 sequence (P30099 whole entry): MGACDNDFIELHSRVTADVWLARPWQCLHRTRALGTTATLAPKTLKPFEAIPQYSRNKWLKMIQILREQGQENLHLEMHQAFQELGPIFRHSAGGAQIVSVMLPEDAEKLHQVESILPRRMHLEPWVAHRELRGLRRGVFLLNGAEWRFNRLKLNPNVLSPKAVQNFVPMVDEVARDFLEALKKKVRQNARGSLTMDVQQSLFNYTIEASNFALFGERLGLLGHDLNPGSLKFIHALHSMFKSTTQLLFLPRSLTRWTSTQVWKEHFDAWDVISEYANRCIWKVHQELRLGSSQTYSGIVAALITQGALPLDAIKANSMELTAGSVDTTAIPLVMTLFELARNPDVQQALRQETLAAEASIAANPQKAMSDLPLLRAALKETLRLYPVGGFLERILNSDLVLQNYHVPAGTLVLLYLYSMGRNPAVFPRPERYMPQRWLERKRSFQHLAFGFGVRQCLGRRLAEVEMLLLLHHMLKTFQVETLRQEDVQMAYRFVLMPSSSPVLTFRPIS
# T3 sequence (P15393 whole entry): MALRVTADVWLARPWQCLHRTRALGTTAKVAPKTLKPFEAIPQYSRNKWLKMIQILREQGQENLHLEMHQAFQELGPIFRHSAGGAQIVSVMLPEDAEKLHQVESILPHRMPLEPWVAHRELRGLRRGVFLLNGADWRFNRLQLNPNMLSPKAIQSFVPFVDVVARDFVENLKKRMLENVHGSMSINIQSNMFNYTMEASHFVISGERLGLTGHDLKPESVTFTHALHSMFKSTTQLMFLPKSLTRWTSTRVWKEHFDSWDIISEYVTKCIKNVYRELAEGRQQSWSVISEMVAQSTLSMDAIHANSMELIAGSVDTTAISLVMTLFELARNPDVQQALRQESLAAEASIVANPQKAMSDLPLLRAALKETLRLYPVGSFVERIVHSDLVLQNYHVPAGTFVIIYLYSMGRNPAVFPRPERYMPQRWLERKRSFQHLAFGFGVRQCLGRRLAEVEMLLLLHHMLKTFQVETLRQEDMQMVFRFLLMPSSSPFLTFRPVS
# [7] = molecular target: T1, Steroid 17-alpha-hydroxylase/17,20 lyase; assay: Inhibition of CYP17 in human testicular microsomes using 17alpha-hydroxypregnenolone as substrate assessed as decrease in DHEA levels at 1 nM after 90 mins by ELISA relative to control; parameters: species or system Testis
# [8] = molecular target: T2, CYP21 (steroid 21-hydroxylase); assay: Inhibition of human CYP21 transfected in HEK293 cells assessed as decrease in conversion of progesterone to 11-deoxycorticosterone preincubated for 5 hrs followed by progesterone addition measured after 20 hrs by ELISA; type: cell-based; parameters: concentration or dose not given beside the values; conditions: HEK293 cells transfected with human CYP21, probe progesterone
# [9] = molecular target: T1, Steroid 17-alpha-hydroxylase/17,20 lyase; assay: Inhibition of CYP17 in human H295R cells assessed as decrease in testosterone levels after 24 hrs by ELISA; type: cell-based
smiles,measurement,setting,value
C[C@]12CC[C@H]3[C@@H](CC[C@H]4CC(=O)NCC[C@@]43C)C1=CC=C2n1ccnc1,IC50,[1],≤ 11 nM
same,inhibition at 0.01 µM,[2],≥ 80%
same,half-life at 1 µM,[3],1 to 50 min
same,"inhibition at 20 h, 0.1 µM",[4],≥ 30%
CCCOc1cncc(C2=CC[C@H]3[C@@H]4CCC5=CC(=O)NCC[C@]5(C)[C@H]4CC[C@]23C)c1,IC50,[1],≤ 11 nM
same,inhibition at 0.01 µM,[2],50 to 80%
same,"inhibition at 20 h, 0.1 µM",[4],< 30%
CCc1cncc(C2=CC[C@H]3[C@@H]4CCC5=CC(=O)NCC[C@]5(C)[C@H]4CC[C@]23C)c1,IC50,[1],≤ 11 nM
same,inhibition at 0.01 µM,[2],≥ 80%
same,half-life at 1 µM,[5],10 to 60 min
same,half-life at 1 µM,[3],10 to 60 min
same,"inhibition at 20 h, 0.1 µM",[4],< 30%
COc1cncc(C2=CC=C3[C@@H]4CCC5=CC(=O)N(C)CC[C@]5(C)[C@H]4CC[C@]23C)c1,IC50,[1],≤ 11 nM
same,inhibition at 0.01 µM,[2],≥ 80%
same,half-life at 1 µM,[3],1 to 50 min
same,"inhibition at 20 h, 0.1 µM",[4],≥ 30%
C[C@]12CCNC(=O)C=C1CC[C@@H]1[C@@H]2CC[C@]2(C)C(c3cncnc3)=CC[C@@H]12,inhibition at 0.01 µM,[2],50 to 80%
same,half-life at 1 µM,[5],1 to 10 min
same,half-life at 1 µM,[3],1 to 10 min
same,"inhibition at 20 h, 0.1 µM",[4],≥ 30%
COC(=O)N1CCC[C@@]2(C)[C@@H](CC[C@@H]3[C@@H]2CC[C@]2(C)C(n4ccnc4)=CC[C@@H]32)C1,"inhibition at 1 h, 0.1 µM",[6],≥ 50%
same,IC50,[7],> 100 nM
same,inhibition at 20 h,[8],10 to 50%
CCc1cncc(C2=CC[C@H]3[C@@H]4CCC5=CC(=O)N(C)CC[C@]5(C)[C@H]4CC[C@]23C)c1,inhibition at 0.01 µM,[2],50 to 80%
same,"inhibition at 20 h, 0.1 µM",[4],≥ 30%
C[C@]12CC[C@H]3[C@@H](CCC4=C/C(=N/O)CC[C@@]43C)C1=CC=C2c1cccnc1,IC50,[1],≤ 11 nM
same,half-life at 1 µM,[3],1 to 50 min
same,"inhibition at 20 h, 0.1 µM",[4],< 30%
same,inhibition at 20 h,[8],≥ 50%
COc1cncc(C2=CC=C3[C@@H]4CCC5=CC(=O)NCC[C@]5(C)[C@H]4CC[C@]23C)c1,IC50,[1],≤ 11 nM
same,inhibition at 0.01 µM,[2],50 to 80%
same,"inhibition at 20 h, 0.1 µM",[4],≥ 30%
C[C@]12CCNC(=O)C=C1CC[C@@H]1[C@@H]2CC[C@]2(C)C(c3cnccn3)=CC[C@@H]12,inhibition at 0.01 µM,[2],≥ 80%
same,half-life at 1 µM,[5],1 to 10 min
same,half-life at 1 µM,[3],1 to 10 min
same,"inhibition at 20 h, 0.1 µM",[4],≥ 30%
CC1C[C@H]2C3=CC=C(c4cncc(N)c4)[C@@]3(C)CC[C@@H]2[C@@]2(C)CCC(=O)C=C12 (stereo partly drawn),IC50,[1],≤ 11 nM
same,"inhibition at 20 h, 0.1 µM",[4],< 30%
C[C@]12CC[C@H](O)CC1=CC[C@@H]1[C@@H]2CC[C@]2(C)C(c3cccnc3)=CC[C@@H]12 [ABIRATERONE],IC50,[1],≤ 11 nM
same,inhibition at 0.01 µM,[2],≥ 80%
same,IC50,[9],≤ 15 nM
same,half-life at 1 µM,[3],1 to 50 min
same,"inhibition at 1 h, 0.1 µM",[6],< 32%
same,inhibition at 20 h,[8],≥ 50%
C[C@]12CCNC(=O)C=C1CC[C@@H]1[C@@H]2CC[C@]2(C)C(n3ccnn3)=CC[C@@H]12,inhibition at 0.01 µM,[2],≥ 80%
same,half-life at 1 µM,[5],1 to 10 min
same,half-life at 1 µM,[3],≥ 50 min
same,"inhibition at 20 h, 0.1 µM",[4],< 30%
"Cc1ccncc1C1=CCC2[C@@H]3CN(C)C4=CC(=O)CC[C@]4(C)[C@H]3CC[C@]12C (single isomer, unassigned)",IC50,[9],≤ 15 nM
same,"inhibition at 1 h, 0.1 µM",[6],≥ 50%
same,inhibition at 20 h,[8],10 to 50%
C[C@]12CCCC(=O)CC1=CC[C@@H]1[C@@H]2CC[C@]2(C)C(n3ccnc3)=CC[C@@H]12,IC50,[1],≤ 11 nM
same,inhibition at 0.01 µM,[2],≥ 80%
same,half-life at 1 µM,[3],1 to 50 min
same,"inhibition at 20 h, 0.1 µM",[4],≥ 30%
COc1cncc(C2=CC=C3[C@@H]4CCC5=CC(=O)CC[C@]5(C)[C@H]4CC[C@]23C)c1,inhibition at 0.01 µM,[2],50 to 80%
same,half-life at 1 µM,[3],1 to 50 min
same,"inhibition at 20 h, 0.1 µM",[4],≥ 30%
Cc1cncc(C2=CC=C3[C@@H]4CCC5=CC(=O)N(C)CC[C@]5(C)[C@H]4CC[C@]23C)c1,inhibition at 0.01 µM,[2],50 to 80%
same,"inhibition at 20 h, 0.1 µM",[4],< 30%
CC(=O)N[C@@H]1CC[C@@]2(C)C(=CC[C@@H]3[C@@H]2CC[C@]2(C)C(n4ccnc4)=CC[C@@H]32)C1,IC50,[1],≤ 11 nM
same,IC50,[9],≤ 15 nM
same,half-life at 1 µM,[3],≥ 50 min
same,"inhibition at 1 h, 0.1 µM",[6],≥ 50%
same,inhibition at 20 h,[8],≥ 50%
C[C@]12CC[C@H]3[C@@H](CCN4C(=O)CCCC[C@]34C)[C@@H]1CC=C2c1cccnc1,IC50,[1],≤ 11 nM
same,inhibition at 0.01 µM,[2],50 to 80%
same,"inhibition at 20 h, 0.1 µM",[4],< 30%
Cc1ccncc1C1=CC[C@H]2[C@@H]3CC[C@H]4CC(=O)NCC[C@]4(C)[C@H]3CC[C@]12C,IC50,[9],≤ 15 nM
same,"inhibition at 1 h, 0.1 µM",[6],< 32%
same,inhibition at 20 h,[8],10 to 50%
C[C@]12CCCC(=O)CC1=CC[C@@H]1[C@@H]2CC[C@]2(C)C(c3cnccn3)=CC[C@@H]12,inhibition at 0.01 µM,[2],≥ 80%
same,half-life at 1 µM,[3],1 to 50 min
same,"inhibition at 20 h, 0.1 µM",[4],≥ 30%
CN1CC[C@@]2(C)C(=CC1=O)CC[C@H]1C3=CC=C(c4cnccn4)[C@@]3(C)CC[C@@H]12,IC50,[1],≤ 11 nM
same,inhibition at 0.01 µM,[2],≥ 80%
same,"inhibition at 20 h, 0.1 µM",[4],≥ 30%
same,inhibition at 20 h,[8],10 to 50%
